Consider 64 compounds from a melting point compilation (Tetko et al.; mined from patent text by program, amines drawn as free bases though some values may be those of a salt).

Structures are written as SMILES.

Usually melting point stands for the temperature of the solid-liquid transition. Regarding `COc1cc(OC)c2c(=O)[nH]c(-c3ccc(OC4CCN(C(=O)N(C)C)CC4)cc3)nc2c1`, the melting point lay in the range of 248 to 249 °C. Next, `O=C(O)c1cc2ccnc(N(Cc3ccccc3)Cc3ccccc3)c2[nH]1`: 114 to 120 °C. `Nc1ncc(I)c(N)c1I` gave a melting point of 206 °C. In turn, `CC(C)c1ccc2ccc(N)nc2n1` registered a melting point of 158 to 160 °C. Next, `O=C(Nc1ccc2ccc(Cl)cc2n1)c1ccccc1`: 133 °C; `CCCCS(=O)(=O)Nc1ccccc1COc1cccc2cccnc12`: 88 to 89 °C; `CC(C)(C)c1cc(Cl)c2c(c1)-c1ccccc1P(=O)(O)O2`: 240 °C.

Compound `CCOC(=O)c1nc(NC(C)=O)sc1Cc1ccc(SCC)cc1` gave a melting point of 190 °C. Under `CCC(=O)N(C)c1cccc(-c2ccc3nnc(NC)n3n2)c1` stands 212 to 213 °C; under `COc1nc(NC(=O)NS(=O)(=O)c2ccccc2C(=O)OC(C)C)nc(OC)n1`, 192 to 195 °C. Next, `COC(C)c1nc2c(N)nc3ccccc3c2n1CC(C)C` (centres undefined): 185 to 189 °C; `COc1cc2c(cc1OC)CC(N(CC(=O)O)C(=O)C(C)CSC(C)=O)C2` (centres undefined): 135 to 137 °C. Under `CCOC(=O)c1cnc2cc(F)c(F)cc2c1` stands 135 °C; under `OC1CSC(Oc2cncc(-c3ccnc(Cl)c3)c2)C(O)C1O` (centres undefined), 204 °C. Consider `CC(C)n1nc(Br)nc1O`, for which the melting point lay within 155 to 157 °C. Next, `O=CNNc1ccc(NS(=O)(=O)c2cccc([N+](=O)[O-])c2)cc1`: 188 to 191 °C; `Fc1ccc(-c2cc(N3CCN(C4CC4)CC3)nc3c2CCCCCC3)cc1`: 125 to 128 °C. Under `O=C(Nc1ccc2cc(CN3CCCC3)ccc2c1)c1ccc(-c2ccccc2)nc1` stands 212 to 214 °C. Next, `O=C(Nc1ccc(-n2nc(C(F)(F)F)cc2C(F)(F)F)c(C(F)(F)F)c1)c1ccc(Cl)cc1`: 65 to 67 °C; `O=S1(=O)c2cccc3cccc(c23)N1CCCCl`: 78 °C. In turn, `COc1ccc(C(=O)Nc2ccccc2CC2CCCCN2)cc1` (centres undefined) came in with a melting point of 108 to 109 °C. Next, `O=Cc1cccc2nnc(-c3ccccc3)cc12`: 156 to 157 °C; `COc1cc(Nc2nccc(-c3ccc(NCCN(C)C)nc3)n2)cc(OC)c1OC`: 110 to 111 °C; `O=C(Nc1cnccn1)Nc1cccc2c1C1CC3(CCN1C2=O)SCCS3` (centres undefined): 236 °C. Next, `CCOC(=O)c1nn(-c2ccc(Cl)cc2Cl)c(-c2ccc(Br)cc2)c1CC`: 108 °C; `CCCC(=O)Nc1cc(C(=O)NC2CCN(C(C)CC(C(=O)N(C)C)(c3ccccc3)c3ccccc3)CC2OC)c(OC)cc1Cl` (centres undefined): 131 °C. Under `O=C(Nc1cc(-c2c(-c3ccc(Cl)cc3)nc3cccnn23)ccn1)c1ccccc1` stands 218 to 219 °C; under `Nc1ccc2ccc(O)cc2c1`, 186 to 188 °C; under `O=S1(=O)NCN(C2CC2)c2ccc(O)cc21`, 187 to 189 °C. Compound `CCOC(=O)NC(=S)NC(C)C` showed a melting point of 52.5 to 54 °C. Next, `N#CC(=NNc1c(Cl)cc(C(F)(F)F)cc1Cl)c1ccc(Cl)cc1`: 164 to 165 °C.

In turn, `CCCCCCCCOc1c(OC)cc(N)c2ncccc12` displayed a melting point of 63 to 64 °C. Next, `CNC(C)C1CCN(c2nc3c(cc2F)c(=O)c(C(=O)O)cn3C2CC2)C1` (centres undefined): 199 to 202 °C. Next, `CC(C)(C)c1cc(-c2nn(Cc3cccc(C(F)(F)F)c3)c3ncccc23)cc(C(C)(C)C)c1O`: 160 to 163 °C. Under `CCCCCC(c1nccn1CC(=O)O)n1cnc2cc(-c3ccccc3-c3nn[nH]n3)ccc21` (centres undefined) stands 150 to 160 °C; under `COc1cc(/C=C/C(=O)O)ccc1OCc1sc(-c2ccc(C(F)(F)F)cc2)nc1C`, 235 to 237 °C; under `COc1ccc(C(C#Cc2ccccc2)Cc2nc(C)co2)cc1OC1CCCC1` (racemic), 56 to 57 °C. For the compound `COc1ccc(COc2ccc(C=C3SC(=S)N(CC(=O)O)C3=O)cc2OCc2ccc(OC)cc2)cc1`, the melting point fell in the range of 151 to 155 °C. Under `Cc1c(-c2cncc(CO)c2)ccc2c(=O)c(C(=O)O)cn(C3CC3)c12` stands 221 to 223 °C; under `CC(C)N(C(=S)ON1C(=O)c2ccccc2C1=O)C(C)C`, 73 to 75 °C; under `Cc1nc(Cl)c(C)c(Cl)c1C`, 67 to 68 °C. `CCc1ccc(Nc2nc3cc(NC(=O)c4ccccc4)ccc3o2)cc1` yielded a melting point of 239 to 240 °C. Under `CC(=O)OC1CSC(Oc2ccc(-c3ccncc3)cc2)C(OC(C)=O)C1OC(C)=O` (centres undefined) stands 180 °C. Under `O=C(O)Cc1ccc(-c2ccc(C(F)(F)F)cc2)cc1` stands 158 to 160 °C; under `NC(=O)COc1ccccc1N`, 117 °C. Under `CCOCCc1c(N=[N+]=[N-])nc(NC(=O)NCC(=O)OCC)nc1-c1ccccc1` stands 130 °C; under `Cc1c(CCOCCO[N+](=O)[O-])cc(-c2ccc(S(C)(=O)=O)cc2)n1-c1ccccc1`, 78 to 80 °C. Take `CCCN1C(=O)N2C[C@@H](Cc3ccccc3)N=C2c2[nH]c(CSCC)nc21`: the melting point fell in the range of 178 to 180 °C. Under `Cc1ccc(N2CCN(C)CC2)c2c1CC[C@@H](NC(=O)c1ccc(Cl)cc1)C2` stands 210 to 212 °C; under `C=CCCCN(C(=O)OC(C)(C)C)c1cc(OCc2ccccc2)c2ccccc2c1I`, 69 to 71 °C; under `CCS(=O)(=O)NC1CCCOc2c(C)cc(Cl)cc21` (centres undefined), 144 to 145 °C. Under `COC(=O)c1nc(NC(C)=O)sc1-c1ccc(SC)cc1` stands 253 to 254 °C; under `CNCC(O)c1cc(C(F)(F)F)nc2c(C(F)(F)F)cccc12` (centres undefined), 158 °C.

In turn, `CS(=O)(=O)c1ccc(-n2nc(C(F)(F)F)cc2-c2ccc(C#Cc3ccccc3)cc2)cc1` registered a melting point of 170 to 172 °C. Next, `C#CCCCCC12SCC(CCC)(CS1)CS2`: 88 °C; `O=S(=O)(Nc1ccncc1)c1ccc(Br)s1`: 310 °C. The compound `COc1cc(C(=O)CS(=O)(=O)N(C)C)c(N)cc1Cl` yielded a melting point of 59 to 62 °C.

For `CCc1ncnc2ccc(CCc3cc(OC)ccc3OC)cc12`, the melting point is 74 °C. Under `CCOC(=O)N1CCC(NC(=O)c2ccccc2)C12CCCCC2` (centres undefined) stands 132 to 133 °C.

`NC(CC(=O)O)c1ccc2c(c1)OCCO2` (centres undefined): the melting point was in the range of 222 to 223 °C. Next, `CCOC(=O)C[C@H]1O[C@H](c2cccc(OC)c2OC)c2cc(Cl)ccc2N(CC(C)(C)CO)C1=O`: 188 to 190 °C; `CC(C)(C)CCN(CCC(C)(C)C)[C@@H](CC(=O)O)C(=O)O`: 197 to 198 °C. Under `O=[N+]([O-])c1ccc(CSCc2c[nH]cn2)cc1` stands 88 °C. With `COc1cccc2c(CCCN(C3CCC3)C3COc4c(F)ccc(C(N)=O)c4C3)coc12` (centres undefined), the melting point was in the range of 131 to 140 °C.
